From patent US20070072807A1, “Method of screening compounds” (SmithKline Beecham Corporation & SmithKline Beecham p.l.c., priority 1999, published 2007)
Numbered stars: 1 amine (or outer) side, 2 acyl side, 3 side chain; on linkers, the order of the positions; unused ones are H or OH. Square brackets hold non-standard residues; d marks the D form. Peptide text beside a SMILES is read from it. * marks the point of attachment. Hexanoyl(5S-NH,4S-OH,6-Ph) = O=C(CC[C@H](O)[C@H](Cc1ccccc1)N[*:1])[*:2]; X2 = Nc1ccc2c(c1)Oc1ccccc1C21OC(=O)c2cc(C(=O)*)ccc21; X1 = CC(C)C[C@H](N[*:1])[C@@H](O)CCC(=O)[*:2]

What was measured:
Asp1 [1] = molecular target: T1, Asp1 (Homo sapiens, UniProt Q9Y5Z0); test: Fluorescence Resonance Energy Transfer (FRET) cleavage assay for Asp1; assay type: biochemical
T1 construct: A cDNA fragment encoding Asp1(EP0848062), amino acids 1 to 473; made in house; host or cells: CHO E1A (Chinese hamster ovary)
Excerpt: Fluorescence Resonsance Energy Transfer (FRET) Cleavage Assay for Asp1
A peptide (X) based on the sequence of the Swedish variant APP beta-site sequence has been doubly labelled for use in a FRET assay. [drawing 2] [drawing 3] This peptide includes the 11 residues spanning the Swedish variant beta-cleavage site (Ile-Ser-Glu-Val-Asn-Leu-Asp-Ala-Glu-Phe-Arg SEQ ID NO:2) with an N-terminal rhodamine green group and C-terminal tetramethylrhodamine group. This would allow cleavage of the intervening peptide sequence by Asp1 to be monitored by energy transfer between the two fluorescent groups.
In practice assays were conducted as follows:
The fluorescent peptide substrate (0.5 uM) was incubated with Asp1-Fc enzyme prepared as described above in a buffer containing 50 mM sodium acetate, 20 mM sodium chloride, 5% glycerol, 0.1% CHAPS (3-[(3-Cholamidopropyl)dimethylammonio]-1-propane-sulphonate), pH 3.8). The assays were started by addition of enzyme (50 nM final concentration) and cleavage monitored on a fluorescent platereader with 485 nm excitation, 538 nm emission. The C-terminal TAMRA group of the peptide acted as effective quencher, thus an increase in rhodamine green intensity was observed upon cleavage.
This assay was used to determine IC50 and Ki values for compounds of interest. […] Asp1 Fluorescence Polarisation Assay.

Asp1 [2] = molecular target: T1, Asp1; test: Asp1 fluorescence polarisation (competition) binding assay
Protocol: A competition assay has also been designed to identify compounds acting at the Asp1 active site. The hydroxyethylene inhibitor (I) has been modified by addition of 5-, 6-rhodamine green to the free N-terminal amine of the compound to create labelled ligand (II). [drawing 5]
The resulting compound was tested experimentally as follows to determine the Kd with Asp1-Fc enzyme, prepared as above.
A three dimensional analysis varying enzyme and ligand (II) was performed. Ligand concentration range was 1, 3, 10, 30 and 100 nM. Enzyme concentration range was from 100 nM down in serial twofold dilutions (11 dilutions+no enzyme control).
Ligand of appropriate concentration was prepared in 5% DMSO. The enzyme solutions were prepared in 2 times (×2) assay buffer (where ×1=50 mM sodium acetate, 20 mM sodium chloride, 5% glycerol, 0.1% CHAPS, pH 3.8). 5 ul of the enzyme solution (of varying concentration) was mixed with 5 ul of the ligand (of varying concentration) in a low volume 384 microtitre plate. The samples were allowed to equilibrate for 15 min before the fluorescence polarisation was read on an LJL ACQUEST platereader.
The Anisotropy values were plotted and the Kd for the tight binding interaction obtained.
Enzyme (at a fixed concentration of 50 nM), ligand (II) (at a fixed concentration of 5.0 nM) and test compound (5 uM down in twofold serial dilutions) were mixed in ×1 assay buffer in a final assay volume of 10 ul and allowed to equilibrate for 3 hrs. The fluorescence polarisation was then read. The experiment was performed in duplicate.

T1 sequence (Q9Y5Z0 with tags, fused parts or gaps limits assumed): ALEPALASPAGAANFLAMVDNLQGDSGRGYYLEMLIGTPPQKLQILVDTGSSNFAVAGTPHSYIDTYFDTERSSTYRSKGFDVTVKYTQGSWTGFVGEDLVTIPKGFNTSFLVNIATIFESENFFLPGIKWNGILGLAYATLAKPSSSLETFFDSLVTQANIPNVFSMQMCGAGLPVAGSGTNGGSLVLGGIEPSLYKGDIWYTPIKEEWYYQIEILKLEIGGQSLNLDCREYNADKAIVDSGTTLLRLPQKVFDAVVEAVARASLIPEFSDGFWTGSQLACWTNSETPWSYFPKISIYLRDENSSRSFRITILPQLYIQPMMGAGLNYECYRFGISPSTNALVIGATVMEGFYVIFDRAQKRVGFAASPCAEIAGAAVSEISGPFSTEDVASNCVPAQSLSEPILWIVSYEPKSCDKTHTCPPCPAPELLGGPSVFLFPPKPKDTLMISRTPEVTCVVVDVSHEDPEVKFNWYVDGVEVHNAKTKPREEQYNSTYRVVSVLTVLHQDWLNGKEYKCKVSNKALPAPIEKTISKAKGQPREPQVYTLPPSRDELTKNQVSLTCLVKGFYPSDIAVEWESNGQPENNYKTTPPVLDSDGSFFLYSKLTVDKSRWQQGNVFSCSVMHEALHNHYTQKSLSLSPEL

`CC(C)C[C@H](NC(=O)[C@H](C)NC(=O)[C@@H](NC(=O)[C@@H](N)CCC(=O)O)C(C)C)[C@@H](O)CCC(=O)N[C@@H](C)C(=O)N[C@@H](CCC(=O)O)C(=O)N[C@@H](Cc1ccccc1)C(=O)O` [Compound (III)] (H-EVA[X1]AEF-OH) was tested, and the IC50 (Asp1 [1]; FRET cleavage assay, Asp1-Fc enzyme) was 60 nM, the “displacement of the fluorescent ligand (II)” value (Asp1 [2]; at the highest concentrations of test compound (5 uM down in twofold serial dilutions)) was “Complete displacement” and the Ki (Asp1 [2]; competition against ligand (II) 5.0 nM, enzyme 50 nM, equilibrated 3 hrs, duplicate) was 50 nM.

Compound `CC(C)[C@H](NC(=O)[C@@H](N)CCC(=O)O)C(=O)N[C@@H](CC(N)=O)C(=O)N[C@@H](Cc1ccccc1)[C@@H](O)CCC(=O)N[C@@H](C)C(=O)N[C@@H](CCC(=O)O)C(=O)N[C@@H](Cc1ccccc1)C(=O)O` [compound (I)] (H-EVN[Hexanoyl(5S-NH,4S-OH,6-Ph)]AEF-OH) has a Ki (Asp1 [1]; Asp1-Fc enzyme 50 nM, fluorescent peptide substrate 0.5 uM, pH 3.8) of 2.5 nM.

For `CC(C)[C@H](NC(=O)[C@H](CCC(=O)O)NC(=O)c1ccc2c(c1)C(=O)OC21c2ccccc2Oc2cc(N)ccc21)C(=O)N[C@@H](CC(N)=O)C(=O)N[C@@H](Cc1ccccc1)[C@@H](O)CCC(=O)N[C@@H](C)C(=O)N[C@@H](CCC(=O)O)C(=O)N[C@@H](Cc1ccccc1)C(=O)O` (stereo partly drawn) [ligand (II)] (X2-EVN[Hexanoyl(5S-NH,4S-OH,6-Ph)]AEF-OH), the Kd (Asp1 [2]; tight binding interaction of labelled ligand with Asp1-Fc enzyme, from anisotropy values, pH 3.8) was 0.075 nM.
